Article PMC7822874, “Chemoprotective antimalarials identified through quantitative high-throughput screening of Plasmodium blood and liver stage parasites” (Scientific Reports, 2021)
Where two headings read alike, the source gives them in different places.

Legend:
[1] = test system: T1, Plasmodium falciparum Dd2 asexual blood stage parasites; assay: microbe, parasite or virus in culture; set-up: species or system P. falciparum Dd2 in human erythrocytes; SYBR Green-I proliferation assay, P. falciparum Dd2 asexual blood stages, growth inhibition; details: DD2, Erythrocyte, 72 h, SYBR Green-I
T1 construct: Dd2 line, asexual blood stage
Protocol: The P. falciparum parasite Dd2 line was cultured in vitro using standard conditions63. Briefly, parasites were maintained in 2% human O+ erythrocytes (Interstate Blood Bank, Memphis, TN) in RPMI-1640 medium (Life Technologies, Grand Island, NY) supplemented with 0.5% Albumax II (Life Technologies), 2 mM l-glutamine, 50 mg/L hypoxanthine, 25 mM HEPES, 0.225% NaHCO3, 24 mM sodium bicarbonate, and 10 μg/ml gentamycin. Tissue culture flasks and assay plates were incubated at 37 °C under a gas mixture of 5% CO2, 5% O2 and 90% N2. Methods for the SYBR Green-I qHTS, calculation of AC50 (50% of the normalized compound response relative to the maximum response), and definition of curve classes have been described30,64–66. qHTS assays were performed in a single replicate with a 7- to 11-point dose response format, and follow-up screens with 3–11 independent 11-point response assays. Significant differences were assessed using two-sided Student’s t-tests. All HTS assays were stopped and read at 72 h. Percent response values represent relative growth as judged by SYBR Green-I fluorescence intensity values normalized to controls. […] […]

[2] = test system: sporozoites / hepatocytes; details: cited from earlier work
[3] = target: T2, Firefly luciferase (Fluc, EC 1.13.12.7) (Photinus pyralis, UniProt P08659); assay: biochemical; set-up: Firefly luciferase enzyme inhibition counterscreen, luminescence with ATP and D-luciferin; details: read-out: Log AC50 (the source's name) (converted)
T2 sequence (P08659 whole entry): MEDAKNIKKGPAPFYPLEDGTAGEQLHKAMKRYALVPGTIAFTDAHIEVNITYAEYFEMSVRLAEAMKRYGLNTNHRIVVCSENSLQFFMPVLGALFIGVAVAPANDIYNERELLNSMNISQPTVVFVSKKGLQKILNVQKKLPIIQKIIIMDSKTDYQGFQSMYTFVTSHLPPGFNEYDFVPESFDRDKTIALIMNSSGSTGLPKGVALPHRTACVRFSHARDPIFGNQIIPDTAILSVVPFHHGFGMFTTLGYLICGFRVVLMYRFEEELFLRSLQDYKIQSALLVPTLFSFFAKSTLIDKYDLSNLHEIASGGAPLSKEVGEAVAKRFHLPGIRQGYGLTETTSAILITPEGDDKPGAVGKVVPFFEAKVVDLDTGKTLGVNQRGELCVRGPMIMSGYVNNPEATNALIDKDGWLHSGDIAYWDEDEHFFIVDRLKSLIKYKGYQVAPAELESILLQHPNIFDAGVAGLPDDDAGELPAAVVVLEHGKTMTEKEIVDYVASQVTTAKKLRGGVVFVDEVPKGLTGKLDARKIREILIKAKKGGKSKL
Protocol: (§1) Compound activity against the Photinus pyralis luciferase (Firefly luciferase, Fluc) reporter utilized for the liver stage assay was determined as previously described using 10 nM Fluc (EC 1.13.12.7) and 10 μM of each substrate (ATP and D-luciferin)[68]. […] Luminescence was detected using ViewLux µHTS Microplate Imager. A counter screen of these 4253 compounds was also performed against the Fluc enzyme, as both liver stage methods utilized a transgenic P. berghei Fluc parasite.

HepG2 = details: human, hepg2 cells, 48 h
in vitro = details: human, hepg2 cells
[4] = target: T2, Firefly luciferase (Fluc, EC 1.13.12.7); assay: biochemical; set-up: Firefly luciferase enzyme inhibition counter-screen, luminescence read-out
Protocol: as §1

[5] = test system: P. berghei-ANKA-GFP-LucCON liver stage parasites in HepG2-A16-CD81EGFP cells; assay: P. berghei liver stage Pb-Luc assay, Method 1 (UCSD, 1536-well); type: cell-based, Plasmodium berghei; details: Plasmodium berghei, Method 1; log10 of molar AC50 from Hill fit; read-out: Log AC50 (converted)
[6] = test system: luciferase-expressing P. berghei liver stage parasites in HepG2 cells; assay: Inhibition of liver-stage development assay (ILSDA), Method 2 (WRAIR, 96-well); type: cell-based, Plasmodium berghei; details: for AC50: Plasmodium berghei, HepG2, Method 2

## COc1cc(Cc2cnc(N)nc2N)cc(OC)c1OC [NCGC00016055-05]
[1]
  AC50: > 28 µM

## CNC(=O)Oc1cccc(-c2cn3cc(OC(=O)NC)ccc3n2)c1 [MLS000700241-01]
[1]
  AC50: > 28 µM

## CC(C)(CN)c1nc(-c2ccc(Cl)c(O)c2)c(-c2ccncc2)[nH]1 [MMV030084]
[2]; added 2 h post sporozoite addition
  IC50: > 10 µM
[2]; pre-treat hepatocytes 4 h prior to adding sporozoites
  IC50: 0.199 µM

## CCN(CC)CCCN(c1ccccc1)C1Cc2ccccc2C1.Cl [NCGC00167576-01]
[3]
  IC50: > 57 µM
HepG2
  Log AC50 (M): -4.5643 M
In vitro
  CC50 at 48 h: 27.3 µM
[4]
  AC50: > 57 µM
[5]
  AC50: 1.58 µM
[6]; Method 2, Decrease = decreasing P. berghei viability with dose, Increase = increasing signal, Inactive = no dose response
  Max Resp (signal direction of the dose response): Decrease
[6]; Hill fit, 50% of maximum activity response, read-out: AC50
  AC50: 7.94 µM
[6]; log10 of molar AC50 from Hill fit, read-out: Log AC50 (converted)
  AC50: 7.94 µM
